Reference: patent US10472336B2, “Modulators of indoleamine 2,3-dioxygenase” (GlaxoSmithKline Intellectual Property (No.2) Limited, priority 2015, dated 2019)

Key:
[1] = target: T1, indoleamine 2, 3-dioxygenase (IDO1) (Homo sapiens, UniProt P14902); assay: PBMC IDOi assay (kynurenine detection by mass spectrometry); type: cell-based; conditions: IFN-γ and LPS stimulated human PBMC, 2 days
Method: Compounds of the present invention were tested via high-throughput cellular assays utilizing detection of kynurenine via mass spectrometry and cytotoxicity as end-points. For the mass spectrometry and cytotoxicity assays, human peripheral blood mononuclear cells (PBMC) (PB003F; AllCells®, Alameda, Calif.) were stimulated with human interferon-γ (IFN-γ) (Sigma-Aldrich Corporation, St. Louis, Mo.) and lipopolysaccharide from Salmonella minnesota (LPS) (Invivogen, San Diego, Calif.) to induce the expression of indoleamine 2, 3-dioxygenase (IDO1). Compounds with IDO1 inhibitory properties decreased the amount of kynurenine produced by the cells via the tryptophan catabolic pathway. Cellular toxicity due to the effect of compound treatment was measured using CellTiter-Glo® reagent (CTG) (Promega Corporation, Madison, Wis.), which is based on luminescent detection of ATP, an indicator of metabolically active cells.
In preparation for the assays, test compounds were serially diluted 3-fold in DMSO from a typical top concentration of 5 mM and plated at 0.5 μL in 384-well, polystyrene, clear bottom, tissue culture treated plates with lids (Greiner Bio-One, Kremsmünster, Austria) to generate 11-point dose response curves. Low control wells (0% kynurenine or 100% cytotoxicity) contained either 0.5 μL of DMSO in the presence of unstimulated (−IFN-γ/−LPS) PBMCs for the mass spectrometry assay or 0.5 μL of DMSO in the absence of cells for the cytotoxicity assay, and high control wells (100% kynurenine or 0% cytotoxicity) contained 0.5 μL of DMSO in the presence of stimulated (+IFN-γ/+LPS) PBMCs for both the mass spectrometry and cytotoxicity assays.
Frozen stocks of PBMCs were washed and recovered in RPMI 1640 medium (Thermo Fisher Scientific, Inc., Waltham, Mass.) supplemented with 10% v/v heat-inactivated fetal bovine serum (FBS) (Thermo Fisher Scientific, Inc., Waltham, Mass.), and 1× penicillin-streptomycin antibiotic solution (Thermo Fisher Scientific, Inc., Waltham, Mass.). The cells were diluted to 1,000,000 cells/mL in the supplemented RPMI 1640 medium. 50 μL of either the cell suspension, for the mass spectrometry assay, or medium alone, for the cytotoxicity assay, were added to the low control wells, on the previously prepared 384-well compound plates, resulting in 50,000 cells/well or 0 cells/well respectively. IFN-γ and LPS were added to the remaining cell suspension at final concentrations of 100 ng/ml and 50 ng/ml respectively, and 50 μL of the stimulated cells were added to all remaining wells on the 384-well compound plates. The plates, with lids, were then placed in a 37° C., 5% CO2 humidified incubator for 2 days.
Following incubation, the 384-well plates were removed from the incubator and allowed to equilibrate to room temperature for 30 minutes. For the cytotoxicity assay, CellTiter-Glo® was prepared according to the manufacturer's instructions, and 40 μL were added to each plate well. After a twenty minute incubation at room temperature, luminescence was read on an EnVision® Multilabel Reader (PerkinElmer Inc., Waltham, Mass.). For the mass spectrometry assay, 10 μL of supernatant from each well of the compound-treated plates were added to 40 μL of acetonitrile, containing 10 μM of an internal standard for normalization, in 384-well, polypropylene, V-bottom plates (Greiner Bio-One, Kremsmünster, Austria) to extract the organic analytes. Following centrifugation at 2000 rpm for 10 minutes, 10 μL from each well of the acetonitrile extraction plates were added to 90 μL of sterile, distilled H2O in 384-well, polypropylene, V-bottom plates for analysis of kynurenine and the internal standard on the RapidFire 300 (Agilent Technologies, Santa Clara, Calif.) and 4000 QTRAP MS (SCIEX, Framingham, Mass.). MS data were integrated using Agilent Technologies' RapidFire Integrator software, and data were normalized for analysis as a ratio of kynurenine to the internal standard. […]

[2] = target: T1, indoleamine 2, 3-dioxygenase (IDO1); assay: HeLa IDOi assay (kynurenine detection by mass spectrometry); type: cell-based; design: human epithelial HeLa cells (CCL-2; host or cells: HeLa cells stimulated with human IFN-γ; conditions: IFN-γ stimulated human epithelial HeLa cells, 2 days
Method in brief: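 HeLa cells (5,000/well) stimulated with 10 nM IFN-γ to induce IDO1 were exposed to 11-point compound dilutions for 2 days at 37 °C. Supernatant kynurenine was measured by RapidFire MS as a ratio to internal standard; cytotoxicity was read with CellTiter-Glo. Four-parameter fits gave pIC50 and pCC50.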

T1 sequence (P14902 whole entry): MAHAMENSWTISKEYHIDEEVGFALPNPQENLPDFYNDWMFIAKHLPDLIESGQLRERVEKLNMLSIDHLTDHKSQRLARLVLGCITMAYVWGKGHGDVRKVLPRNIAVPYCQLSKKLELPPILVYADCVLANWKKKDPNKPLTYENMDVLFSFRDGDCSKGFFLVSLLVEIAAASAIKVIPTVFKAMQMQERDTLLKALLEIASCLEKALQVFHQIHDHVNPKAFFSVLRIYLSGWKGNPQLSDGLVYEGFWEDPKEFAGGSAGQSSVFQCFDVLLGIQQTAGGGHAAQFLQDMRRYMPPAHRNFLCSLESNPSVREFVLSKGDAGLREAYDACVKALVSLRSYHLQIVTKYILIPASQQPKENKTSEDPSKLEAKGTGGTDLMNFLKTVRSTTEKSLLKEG

Row | Structure (SMILES) | EC50 [1] [µM] | EC50 [2] [µM]
1 | CC(C)CN(c1ccc([C@H](C)CC(=O)O)cc1Nc1nnc(C2CC2)s1)C1CCCCC1 [Example 56, (R)-3-(4-(cyclohexyl(isobutyl)amino)-3-((5-cyclopropyl-1,3,4-thiadiazol-2-yl)amino)phenyl)butanoic acid] | 0.000251 | 0.00316
2 | CC(C)CN(c1ccc([C@@H](C)CC(=O)O)cc1Nc1nnc(C2CC2)s1)C1CCCCC1 [Example 57, (S)-3-(4-(cyclohexyl(isobutyl)amino)-3-((5-cyclopropyl-1,3,4-thiadiazol-2-yl)amino)phenyl)butanoic acid] | 0.000631 | 0.002
3 | CC(C)CN(CC(C)C)c1ccc(C(C)CC(=O)O)cc1Nc1cnccn1 (stereo not shown) [Example 58, 3-(4-(diisobutylamino)-3-(pyrazin-2-ylamino)phenyl)butanoic acid] | 0.158 | 0.316
4 | CC(C)CN(c1ccc(C(C)CC(=O)O)cc1NCc1ccco1)C1CCCCC1 (stereo not shown) [Example 59, 3-(4-(cyclohexyl(isobutyl)amino)-3-((furan-2-ylmethyl)amino)phenyl)butanoic acid] | 0.2 | 0.501
5 | Cc1nc(C(F)(F)F)sc1Nc1cc(C(C)CC(=O)O)ccc1N(CC(C)C)CC(C)C (stereo not shown) [Example 60, 3-(4-(diisobutylamino)-3-((4-methyl-2-(trifluoromethyl)thiazol-5-yl)amino)phenyl)butanoic acid] | 0.398 | 0.501
6 | CC(C)CN(CC(C)C)c1ccc(C(C)CC(=O)O)cc1Nc1cnc(C2CC2)s1 (stereo not shown) [Example 61, 3-(3-((2-cyclopropylthiazol-5-yl)amino)-4-(diisobutylamino)phenyl)butanoic acid] | 0.0316 | 0.0631
7 | CC(C)CN(c1ccc([C@@H](C)CC(=O)O)cc1Nc1ccnc(Cl)n1)C1CCCCC1 [Example 62, (S)-3-(3-((2-chloropyrimidin-4-yl)amino)-4-(cyclohexyl(isobutyl)amino)phenyl)butanoic acid] | 0.00251 | 0.00398
8 | CC(C)CN(c1ccc([C@H](C)CC(=O)O)cc1Nc1ccnc(Cl)n1)C1CCCCC1 [Example 63, (R)-3-(3-((2-chloropyrimidin-4-yl)amino)-4-(cyclohexyl(isobutyl)amino)phenyl)butanoic acid] | 0.02 | 0.0316
9 | CC(C)CN(c1ccc(C(CC(=O)O)C(F)(F)F)cc1Nc1nc(Cl)ns1)C1CCCCC1 (stereo not shown) [Example 71, 3-(3-((3-Chloro-1,2,4-thiadiazol-5-yl)amino)-4-(cyclohexyl(isobutyl)amino)phenyl)-4,4,4-trifluorobutanoic Acid] | 0.000794 | 0.00631
10 | CC(C)CN(c1ccc(C(C)CC(=O)O)cc1NC1=N[C@H](C(F)(F)F)CS1)C1CCCCC1 (stereo partly drawn) [Example 75, 3-(4-(Cyclohexyl(isobutyl)amino)-3-(((R)-4-(trifluoromethyl)-4,5-dihydrothiazol-2-yl)amino)phenyl)butanoic Acid] | 0.0631 | 0.0316
11 | CC(C)CN(c1ccc(C(C)CC(=O)O)cc1NC1=N[C@@H](C(F)(F)F)CO1)C1CCCCC1 (stereo partly drawn) [Example 76, 3-(4-(Cyclohexyl(isobutyl)amino)-3-(((R)-4-(trifluoromethyl)-4,5-dihydrooxazol-2-yl)amino)phenyl)butanoic acid] | 0.02 | 0.0316
